Experimental data as given in patent US12221428B2, “Use of deuterated empathogens as therapeutic agents” (priority 2021, dated 2025).

How the values were obtained:
[1] = molecular target: T1, serotonin receptor 2B (HTR2B) (Homo sapiens, UniProt P41595); experiment: Calcium No Wash Plus calcium mobilization assay, HTR2B antagonist mode; assay type: cell-based
T1 construct: expressed in transfected cells
Procedure: Methods—Calcium Mobilization: GPCR activity of serotonin receptor 2B (HTR2B), among others, was measured using the Calcium No Wash^Plus assay, which monitors calcium mobilization in cell lines expressing Gq-coupled GPCRs by loading a calcium-sensitive dye into cells.
Cell lines were expanded from freezer stocks and seeded into multi-well microplates. Then, the plates were incubated at 37° C. for an appropriate amount of time and loaded with Dye Loading buffer. To determine compound agonist activity, cells were incubated with the sample to induce a response, and HBSS/20 mM Hepes was added using a FLIPR Tetra (MDS). Activity was measured on a FLIPR Tetra. Calcium mobilization was monitored for 2 minutes.
To determine compound antagonist activity, cells were pre-incubated with the sample followed by an post-incubation administration of the compound with 3×EC80 agonist using FLIPR. Compound antagonist activity was measured on a FLIPR Tetra (MDS) and calcium mobilization was monitored for 2 minutes.
Compound activity was analyzed using CBIS data analysis suite (ChemInnovation, CA). For agonist mode assays, percentage activity was calculated using the following formula: % Activity=100%×(mean RFU of test sample−mean RFU of vehicle control)/(mean MAX RFU control ligand −mean RFU of vehicle control). […]

[2] = cited from earlier work
[3] = molecular target: T2, HTR1B (Homo sapiens, UniProt P28222); experiment: Hit Hunter cAMP assay, HTR1B agonist mode; assay type: cell-based
T2 construct: expressed in transfected cells
Procedure: Methods—cAMP: Activation of HTR1B and GRM2, among other targets, was determined using the Hit Hunter® cAMP assay. The assay monitors the activation of a GPCR via Gi and Gs secondary messenger signaling, using β-Gal as a functional reporter.
To determine agonistic activity at Gi/Gs, cells were expanded from freezer stocks, seeded into multi-well plates, and incubated at 37° C. prior to addition of a test compound. To determine Gi/Gs agonism, media was aspirated from cells and replaced with 15 μL 2:1 HBSS/10 mM HEPES:cAMP XS+Ab reagent. Concentrated (4×) test compound in assay buffer was added to cells and incubated at 37° C. or room temperature for 30 or 60 minutes. For Gi agonist activation, cells were incubated with EC80 forskolin in addition to a test compound. Vehicle concentration was 1%.
For Gs agonist mode assays, percentage activity was calculated using the following formula: % Activity=100%×(mean RLU of test sample−mean RLU of vehicle control)/(mean RLU of MAX control−mean RLU of vehicle control).
For Gi agonist mode assays, percentage activity was calculated using the following formula: % Activity=100%×(1−(mean RLU of test sample−mean RLU of MAX control)/(mean RLU of vehicle control−mean RLU of MAX control)).

[4] = molecular target: CYP2D6 (Homo sapiens, UniProt P10635); settings: cited from earlier work
[5] = molecular target: T3, nicotinic acetylcholine receptor nAChR (a4/b2) (Homo sapiens, UniProt P17787+P43681); experiment: FLIPR Membrane Potential ion channel assay, nAChR (a4/b2) blocker; assay type: cell-based; settings: read-out: EC50/IC50
T3 construct: expressed in transfected cells
Procedure: Methods—Ion Channel Assay: Membrane potential changes were measured using the FLIPR® Membrane potential Assay Kit. A fluorescent indicator dye in combination with a quencher is used to reflect real-time membrane potential changes associated with ion channel activation and ion transporter proteins.
To determine agonist and antagonist activity, cell lines were expanded from freezer stocks, seeded into multi-well microplates, and incubated at 37° C. Cells were then loaded with dye and incubated again.
For agonist determination, cells were incubated with the sample a different dilutions to induce a response. For antagonist determination, cells were pre-incubated with the sample at different dilutions. Following dye administration, the sample was added to the cells in the presence of EC80 agonist and then re-incubated at room temperature in the dark.
Compound activity was analyzed using CBIS data analysis suite (ChemInnovation, CA). For agonist mode assays, percentage activity was calculated using the following formula: % Activity=100%×(mean RLU of test sample−mean RLU of vehicle control)/(mean MAX control ligand−mean RLU of vehicle control).
For antagonist mode assays, percentage inhibition was calculated using the following formula: % Inhibition=100%×(1−(mean RLU of test sample−mean RLU of vehicle control)/(mean RLU of EC80 control−mean RLU of vehicle control)).

[6] = molecular target: T4, NET (Homo sapiens, UniProt P23975); experiment: Neurotransmitter Transporter Uptake Assay, NET blocker mode; assay type: cell-based
T4 construct: expressed in transfected cells
Procedure: Methods—Monoamine Transporter Assay: Neurotransmitter uptake via transporters was measured using the Neurotransmitter Transporter Uptake Assay Kit from Molecular Devices. Dopamine, norepinephrine or serotonin transporter activity in cells was detected using a homogeneous fluorescence based assay. Increased intracellular fluorescence intensity following uptake of biogenic amine neurotransmitters via transporters is measured and can be run in a kinetic or endpoint mode.
To determine percentage inhibition of neurotransmitter uptake via transporter, cell lines were expanded from freezer stocks, seeded into a multi-well microplate, and incubated at 37° C. Then, the compound was administered and the mix was incubated again. Following compound incubation, dye was added to the wells and the plate was re-incubated. Microplates were then transferred to a PerkinElmer Envision™ instrument for fluorescence signal detection.
Compound activity was analyzed using CBIS data analysis (ChemInnovation, CA). For blocker mode assays, percentage inhibition was calculated using the following formula: % Inhibition=100%×(1−(mean RLU of test sample−mean RLU of vehicle control)/(mean RLU of positive control−mean RLU of vehicle control)).

[7] = molecular target: T5, DAT (Homo sapiens, UniProt Q01959); experiment: Neurotransmitter Transporter Uptake Assay, DAT blocker mode; assay type: cell-based
T5 construct: expressed in transfected cells

[8] = cited from earlier work; remark: listed apart in the source

T3 sequence (P43681 29-627 limits assumed): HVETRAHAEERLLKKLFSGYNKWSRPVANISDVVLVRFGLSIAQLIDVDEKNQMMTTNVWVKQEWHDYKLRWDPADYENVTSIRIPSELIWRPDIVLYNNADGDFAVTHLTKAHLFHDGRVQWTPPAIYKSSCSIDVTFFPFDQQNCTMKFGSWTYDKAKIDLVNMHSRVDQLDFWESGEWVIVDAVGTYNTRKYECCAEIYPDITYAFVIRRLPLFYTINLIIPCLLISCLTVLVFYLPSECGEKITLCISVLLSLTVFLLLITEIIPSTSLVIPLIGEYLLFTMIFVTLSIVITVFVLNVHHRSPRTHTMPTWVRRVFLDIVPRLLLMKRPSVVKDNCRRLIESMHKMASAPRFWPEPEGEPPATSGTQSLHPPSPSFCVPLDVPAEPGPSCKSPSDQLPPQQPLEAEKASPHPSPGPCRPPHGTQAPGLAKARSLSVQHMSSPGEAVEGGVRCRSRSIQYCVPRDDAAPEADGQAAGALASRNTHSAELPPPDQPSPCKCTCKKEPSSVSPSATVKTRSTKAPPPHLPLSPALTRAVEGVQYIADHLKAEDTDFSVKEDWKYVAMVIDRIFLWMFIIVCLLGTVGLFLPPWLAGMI
T3 sequence (P17787 26-502): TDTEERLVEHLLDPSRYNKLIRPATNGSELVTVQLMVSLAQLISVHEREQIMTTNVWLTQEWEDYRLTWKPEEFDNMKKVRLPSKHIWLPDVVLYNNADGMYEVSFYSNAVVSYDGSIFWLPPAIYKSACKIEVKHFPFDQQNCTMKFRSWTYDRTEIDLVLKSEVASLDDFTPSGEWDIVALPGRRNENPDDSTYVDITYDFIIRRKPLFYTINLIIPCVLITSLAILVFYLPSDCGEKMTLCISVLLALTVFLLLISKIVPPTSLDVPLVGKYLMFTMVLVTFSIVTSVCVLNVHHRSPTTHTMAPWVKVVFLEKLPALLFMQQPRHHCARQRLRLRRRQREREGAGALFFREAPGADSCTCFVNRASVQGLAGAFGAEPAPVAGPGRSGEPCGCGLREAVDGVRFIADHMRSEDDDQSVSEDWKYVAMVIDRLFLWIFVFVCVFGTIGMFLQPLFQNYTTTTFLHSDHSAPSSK
T2 sequence (P28222 whole entry, species assumed): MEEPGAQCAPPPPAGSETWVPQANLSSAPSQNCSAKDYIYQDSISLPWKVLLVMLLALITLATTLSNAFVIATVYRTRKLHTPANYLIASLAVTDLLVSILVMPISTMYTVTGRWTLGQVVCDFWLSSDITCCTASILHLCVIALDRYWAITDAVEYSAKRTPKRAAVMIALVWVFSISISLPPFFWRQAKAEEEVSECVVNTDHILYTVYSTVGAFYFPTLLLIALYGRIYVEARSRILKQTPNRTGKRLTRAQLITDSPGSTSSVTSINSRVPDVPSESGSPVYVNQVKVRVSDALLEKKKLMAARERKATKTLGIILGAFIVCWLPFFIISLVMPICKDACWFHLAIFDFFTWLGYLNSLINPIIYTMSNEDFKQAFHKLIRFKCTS
T1 sequence (P41595 whole entry, species assumed): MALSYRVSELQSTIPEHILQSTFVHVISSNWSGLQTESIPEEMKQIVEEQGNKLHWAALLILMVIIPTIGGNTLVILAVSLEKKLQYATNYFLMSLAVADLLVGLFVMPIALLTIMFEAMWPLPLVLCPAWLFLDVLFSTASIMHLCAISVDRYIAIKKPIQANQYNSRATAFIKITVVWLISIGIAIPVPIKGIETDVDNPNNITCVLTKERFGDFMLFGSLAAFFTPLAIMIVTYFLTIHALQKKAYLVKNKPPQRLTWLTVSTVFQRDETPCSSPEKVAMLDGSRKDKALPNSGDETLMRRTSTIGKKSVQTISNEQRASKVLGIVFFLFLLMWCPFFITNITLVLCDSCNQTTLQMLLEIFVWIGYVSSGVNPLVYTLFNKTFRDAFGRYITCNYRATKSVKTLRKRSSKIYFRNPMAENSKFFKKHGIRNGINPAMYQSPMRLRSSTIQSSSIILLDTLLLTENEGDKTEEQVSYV
T5 sequence (Q01959 whole entry, species assumed): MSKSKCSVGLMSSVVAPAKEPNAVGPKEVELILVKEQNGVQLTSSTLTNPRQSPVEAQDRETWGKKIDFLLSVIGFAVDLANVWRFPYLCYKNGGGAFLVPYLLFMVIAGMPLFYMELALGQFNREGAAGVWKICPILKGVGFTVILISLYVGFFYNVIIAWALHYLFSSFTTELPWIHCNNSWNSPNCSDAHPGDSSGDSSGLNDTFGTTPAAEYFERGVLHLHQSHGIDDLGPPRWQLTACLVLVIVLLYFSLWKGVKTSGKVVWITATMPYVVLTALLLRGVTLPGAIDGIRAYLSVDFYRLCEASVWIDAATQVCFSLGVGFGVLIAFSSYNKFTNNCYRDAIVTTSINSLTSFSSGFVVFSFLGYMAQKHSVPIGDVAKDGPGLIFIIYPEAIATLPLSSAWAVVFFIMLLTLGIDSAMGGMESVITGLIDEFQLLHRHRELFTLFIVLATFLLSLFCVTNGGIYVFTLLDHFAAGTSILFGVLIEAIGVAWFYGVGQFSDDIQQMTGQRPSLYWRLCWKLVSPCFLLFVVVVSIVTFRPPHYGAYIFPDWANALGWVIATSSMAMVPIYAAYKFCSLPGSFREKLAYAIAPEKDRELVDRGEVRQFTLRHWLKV
T4 sequence (P23975 whole entry): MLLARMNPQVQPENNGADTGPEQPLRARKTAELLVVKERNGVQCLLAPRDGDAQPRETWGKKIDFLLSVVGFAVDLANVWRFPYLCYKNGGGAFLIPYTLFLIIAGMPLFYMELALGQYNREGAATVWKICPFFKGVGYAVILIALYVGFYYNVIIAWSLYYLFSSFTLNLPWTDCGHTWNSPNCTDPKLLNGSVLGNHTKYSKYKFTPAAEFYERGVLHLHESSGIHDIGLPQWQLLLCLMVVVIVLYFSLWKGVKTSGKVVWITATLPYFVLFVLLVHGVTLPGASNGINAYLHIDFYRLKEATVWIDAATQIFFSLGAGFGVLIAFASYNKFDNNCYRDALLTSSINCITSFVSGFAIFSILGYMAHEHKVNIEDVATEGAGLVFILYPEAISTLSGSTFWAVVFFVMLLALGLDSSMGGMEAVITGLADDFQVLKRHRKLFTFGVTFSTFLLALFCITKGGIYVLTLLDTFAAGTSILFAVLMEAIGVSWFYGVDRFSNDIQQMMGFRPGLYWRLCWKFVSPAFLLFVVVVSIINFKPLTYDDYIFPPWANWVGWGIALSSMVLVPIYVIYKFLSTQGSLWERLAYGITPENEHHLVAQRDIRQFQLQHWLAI
Chain of CYP2D6 (P10635 whole entry): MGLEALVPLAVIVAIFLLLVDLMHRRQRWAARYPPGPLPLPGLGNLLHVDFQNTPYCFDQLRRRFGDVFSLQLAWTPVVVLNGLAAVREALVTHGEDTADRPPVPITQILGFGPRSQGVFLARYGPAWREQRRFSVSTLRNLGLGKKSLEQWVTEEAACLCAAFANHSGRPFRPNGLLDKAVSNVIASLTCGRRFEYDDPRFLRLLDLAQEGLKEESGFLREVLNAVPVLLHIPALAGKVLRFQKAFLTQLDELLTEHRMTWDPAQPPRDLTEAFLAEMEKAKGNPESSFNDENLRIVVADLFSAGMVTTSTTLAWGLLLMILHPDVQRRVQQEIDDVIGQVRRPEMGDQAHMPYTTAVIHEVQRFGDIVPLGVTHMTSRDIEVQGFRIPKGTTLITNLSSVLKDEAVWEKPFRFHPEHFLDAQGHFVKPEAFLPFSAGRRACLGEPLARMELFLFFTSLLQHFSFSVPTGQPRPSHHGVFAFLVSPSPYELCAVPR

SMILES | IC50 [1] | efficacy in severe PTSD ([2]; MDMA-assisted therapy compared to therapy with inactive placebo) | safety and tolerability ([2]; individuals with severe PTSD, even with comorbidities) | EC50 [3] | CYP2D6 inhibition [4] | IC50 [5] | IC50 [6] | IC50 [7] | interoceptive effects ([8]; deuterium substitution at the methylenedioxy ring moiety) | hyperthermic effects ([8]; in vivo)
CNC(C)Cc1ccc2c(c1)OCO2 (stereo not drawn) [MDMA, 3,4-methylenedioxymethamphetamine] | 5.34 µM | highly efficacious | safe and well-tolerated | 4.71 µM | inhibit CYP2D6 | 3.19 µM | 2.49 µM | 9.84 µM |  | 
[2H]C1([2H])Oc2ccc(CC(C)NC)cc2O1 (stereo not drawn) [d2-MDMA] |  |  |  |  |  |  |  |  | does not impact MDMA's interoceptive effects | reduced potential for producing hyperthermic effects
[2H]C([2H])([2H])NC(C)Cc1ccc2c(c1)OCO2 (stereo not drawn) [MDMA-d3] | 4.2 µM |  |  | 2.99 µM |  | 4.38 µM | 3.87 µM | 7.57 µM |  | 
